Experimental findings from PMC11770101, “Nonenzymatic lysine D-lactylation induced by glyoxalase II substrate SLG dampens inflammatory immune responses” (Cell Research, 2025) are described below.

The structures appear in SMILES notation.

The test concerns the target T1, glyoxalase II (GLO2) (Mus musculus, UniProt Q99KB8).
T1 construct: gene Hagh
The test is described as follows: LC-MS quantification of accumulated GLO2 substrate SLG in BMDMs treated with […] DiFMOC-G for […] h. It is filed as cell-based.

For `O=C(O)CNC(=O)[C@H](CSC(=O)OCC1c2ccccc2-c2ccccc21)NC(=O)CC[C@H](NC(=O)OCC1c2ccccc2-c2ccccc21)C(=O)O` [DiFMOC-G], the “LC-MS quantification of accumulated GLO2 substrate SLG in BMDMs treated with 0.4” value is “treatment with DiFMOC-G could dramatically induce SLG accumulation (Fig. 4e), recapitulating changes observed during macrophage activation”.
